One series relates to EPH receptor. The note with it: general statement, method or value not given; cited from earlier work.
Series [1] in a line: aqueous solubility of Compound I as a function of pH. The following applies: aqueous medium, pH of 2 compared with pH of 5. Format: physicochemical.
Another series deals with PDGF receptor. The note with it: general statement, method or value not given; cited from earlier work.

For the molecule `Cc1nc(Nc2ncc(C(=O)Nc3c(C)cccc3Cl)s2)cc(N2CCN(CCO)CC2)n1` [Compound I, N-(2-chloro-6-methylphenyl)-2-((6-(4-(2-hydroxyethyl)-1-piperazinyl)-2-methyl-4-pyrimidinyl)amino)-1,3-thiazole-5-carboxamide], the “inhibition of EPH receptor” value in the series on EPH receptor is “potent inhibitor”. In series [1], the aqueous solubility entry is listed as “higher solubility at a pH of 2 than at a pH of 5”. Besides, in the series with PDGF receptor, the “inhibition of PDGF receptor” value is “potent inhibitor”.

The values are drawn from patent US20080275009A1, “ORAL ADMINISTRATION OF N-(2-CHLORO-6-METHYLPHENYL)-2-[[6-[4-(2-HYDROXYETHYL)-1-PIPERAZINYL]-2-METHYL-4-PYRIMIDINYL]AMINO]-1,3-THIAZOLE-5-CARBOXAMIDE AND SALTS THEREOF” (Bristol-Myers Squibb Company, priority 2005, published 2008).
